System: 186277-243-T-J2-PDC spheroids with HUVEC/MSC, viability
Test: Anticancer human tumor 186277-243-T-J2-PDC patient-derived colon adenocarcinoma cell line growth inhibition [CLK]
Settings: for IC50: curve of first compound; for viability, T/C: stronger effect = lower value
In short: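 Patient-derived tumor cells grown as complex spheroids with HUVEC endothelial cells and mesenchymal stem cells, treated with drug combinations. Concentrations descend in half-log steps from near clinical Cmax, or from 10 microM if Cmax unknown.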
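Note: compound exposure lasted seven days before readout.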
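Throughout, for viability, T/C: 100% = DMSO vehicle control wells.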

## COc1ccc([C@@H](O)c2cc(-c3ncnc4cc(N5CCOCC5)ccc34)c(F)cc2Cl)nn1 + CNC(=O)c1ccc(Nc2nc(OC3CCCC3)c3c(-c4ccc5nc(C)oc5c4)c[nH]c3n2)c(OC)c1
Second compound 0.0316 µM
  IC50: 7660 nM
Second compound 0.1 µM
  IC50: 384 nM
Second compound 0.316 µM
  IC50: < 31.6 nM
Second compound 1 µM
  IC50: < 31.6 nM
Second compound 3.16 µM
  IC50: < 31.6 nM
Second compound 10 µM
  IC50: < 31.6 nM
Second compound 0.0316 µM, first compound 0.0316 µM
  viability, T/C: 102%
Second compound 0.0316 µM, first compound 0.1 µM
  viability, T/C: 86.8%
Second compound 0.0316 µM, first compound 0.316 µM
  viability, T/C: 110%
Second compound 0.0316 µM, first compound 1 µM
  viability, T/C: 87.6%
Second compound 0.0316 µM, first compound 3.16 µM
  viability, T/C: 73.7%
Second compound 0.0316 µM, first compound 10 µM
  viability, T/C: 43%
Second compound 0.1 µM, first compound 0.0316 µM
  viability, T/C: 71.8%
Second compound 0.1 µM, first compound 0.1 µM
  viability, T/C: 62.5%
Second compound 0.1 µM, first compound 0.316 µM
  viability, T/C: 50.2%
Second compound 0.1 µM, first compound 1 µM
  viability, T/C: 42.7%
Second compound 0.1 µM, first compound 3.16 µM
  viability, T/C: 31.9%
Second compound 0.1 µM, first compound 10 µM
  viability, T/C: 23.5%
Second compound 0.316 µM, first compound 0.0316 µM
  viability, T/C: 38.7%
Second compound 0.316 µM, first compound 0.1 µM
  viability, T/C: 40.7%
Second compound 0.316 µM, first compound 0.316 µM
  viability, T/C: 29.9%
Second compound 0.316 µM, first compound 1 µM
  viability, T/C: 23.7%
Second compound 0.316 µM, first compound 3.16 µM
  viability, T/C: 18.6%
Second compound 0.316 µM, first compound 10 µM
  viability, T/C: 14.5%
Second compound 1 µM, first compound 0.0316 µM
  viability, T/C: 30.4%
Second compound 1 µM, first compound 0.1 µM
  viability, T/C: 25.2%
Second compound 1 µM, first compound 0.316 µM
  viability, T/C: 23.4%
Second compound 1 µM, first compound 1 µM
  viability, T/C: 16.2%
Second compound 1 µM, first compound 3.16 µM
  viability, T/C: 12.9%
Second compound 1 µM, first compound 10 µM
  viability, T/C: 12.2%
Second compound 3.16 µM, first compound 0.0316 µM
  viability, T/C: 27.1%
Second compound 3.16 µM, first compound 0.1 µM
  viability, T/C: 29.2%
Second compound 3.16 µM, first compound 0.316 µM
  viability, T/C: 23.2%
Second compound 3.16 µM, first compound 1 µM
  viability, T/C: 18.5%
Second compound 3.16 µM, first compound 3.16 µM
  viability, T/C: 16%
Second compound 3.16 µM, first compound 10 µM
  viability, T/C: 10.7%
Second compound 10 µM, first compound 0.0316 µM
  viability, T/C: 28.7%
Second compound 10 µM, first compound 0.1 µM
  viability, T/C: 29.5%
Second compound 10 µM, first compound 0.316 µM
  viability, T/C: 23.2%
Second compound 10 µM, first compound 1 µM
  viability, T/C: 19.8%
Second compound 10 µM, first compound 3.16 µM
  viability, T/C: 17.2%
Second compound 10 µM, first compound 10 µM
  viability, T/C: 9%

From PubChem BioAssay AID2060625 (Molecular Pharmacology Branch, DTP, NCI, 2025)
